Data from patent publication US20040102454A1, “Phenylahistin and the phenylahistin analogs, a new class of anti-tumor compounds” (priority 1998, published 2004).

Columns and labels:
HCT-15 = test: HCC panel assay, sulforhodamine B; format: cell-based; details: HCT-15, Colon, (−)-PLH content 24.1%
Method: (§1) The antitumor activity of PLH was evaluated by the Human Cancer Cell Line Panel (HCC panel) assay, see Yamori T., Jap. J Cancer Chemother., (1997), 24, 129-35. This HCC panel consists of 38 tumor cell lines including 7 lung cancer, 6 stomach, 6 colon, 5 ovary, 6 central nerve system, 5 breast, 2 kidney and 1 melanoma cell lines. Each tumor cell was seeded in 96-well tissue culture plates and incubated overnight. Various concentrations (5 doses; final 10^−4, 10^−5, 10^−6, 10^−7 and 10^−8 M) of PLH were added, and the cells were incubated for 48 hours. […] All mice were obtained from Japan SLC (Shizuoka, Japan), P388 leukemia cells were obtained from Dainippon Pharmaceuticals Inc. (Osaka, Japan), Lewis Lung Carcinoma from Riken Cell Bank (Tsukuba, Japan), and Colon 26 cells from the National Cancer Center, Japan (Tokyo, Japan).

MCF-7 = test: HCC panel assay, sulforhodamine B; format: cell-based; details: MCF-7, Breast, (−)-PLH content 24.1%
Method: as §1

MKN1 = test: HCC panel assay, sulforhodamine B; format: cell-based; details: MKN1, Stomach, (−)-PLH content 24.1%
Method: as §1

MKN45 = test: HCC panel assay, sulforhodamine B; format: cell-based; details: MKN45, Stomach, (−)-PLH content 24.1%
Method: as §1

NCI-H226 = test: HCC panel assay, sulforhodamine B; format: cell-based; details: NCI-H226, Lung, (−)-PLH content 24.1%
Method: as §1

OVCAR-8 = test: HCC panel assay, sulforhodamine B; format: cell-based; details: OVCAR-8, Ovary, (−)-PLH content 24.1%
Method: as §1

SF-268 = test: HCC panel assay, sulforhodamine B; format: cell-based; details: SF-268, CNS, (−)-PLH content 24.1%
Method: as §1

SF-539 = test: HCC panel assay, sulforhodamine B; format: cell-based; details: SF-539, CNS, (−)-PLH content 24.1%
Method: as §1

St-4 = test: HCC panel assay, sulforhodamine B; format: cell-based; details: St-4, Stomach, (−)-PLH content 24.1%
Method: as §1

P388 leukemia cells = test: In vivo antitumor activity against P388 leukemia; parameters: species or system mice
Method: Male CDF1 mice (4 weeks old) were inoculated intraperitoneally with P388 leukemia cells (1×10^6 cells/body) on day 0. […] Each group consisted of six mice. A T/C (%) was calculated according to the following formula:
T/C (%)=[(mean number of survival days of treated group)/(mean number of survival days of control group)]×100

A-431 (damal) = test: Antiproliferative activity, MTT assay (Table 7); format: cell-based; details: Homo sapiens, optical purity over 99.8%
Method: (§2) In order to examine detailed biological activity, especially antitumor activity of both (+)- and (−)-phenylahistin, resolution of (+)- and (−)-phenylahistin using chiral HPLC was conducted. By repeating chiral separation twice or three times, each enantiomer with an optical purity over 99.8% was obtained, and each enantiomer was recrystallizes from ethanol-hexane mixture.
(§3) Antitumor activity of (+)- and (−)-phenylahistin was examined against seven human cancer cell lines including A431, WiDr, TE-671, Hela, MCF7, A-549 and K562 cells.

K562 (leukemia) = test: Antiproliferative activity, MTT assay (Table 7); format: cell-based; details: Homo sapiens, optical purity over 99.8%
Method: as §2, §3

MCF7 (breast) = test: Antiproliferative activity, MTT assay (Table 7); format: cell-based; details: Homo sapiens, optical purity over 99.8%
Method: as §2, §3

WiDr (colon) = test: Antiproliferative activity, MTT assay (Table 7); format: cell-based; details: Homo sapiens, optical purity over 99.8%
Method: as §2, §3

C. albicans 10231 = test: Antifungal susceptibility testing, broth dilution (NCCLS M38-A); format: cell-based, Candida albicans; details: Candida albicans; C. albicans 10231; 80% reduction in turbidity; read-out: MIC
Method: (§4) Antifungal susceptibility testing was accomplished according to the methods outlined in the National Committee for Clinical Laboratory Standards, M38-A “Reference Method for Broth Dilution Antifungal Susceptibility Testing of Conidium-Forming Filamentous Fungi; Approved Standard.” This includes testing in RPMI-1640 with glutamine and without bicarbonate, an inoculum size of 0.4-5×10^4, and incubation at 30 or 35° C. for 48 hours. […] Drug concentrations were 0.03-16 μg/ml for the investigational compounds, 0.015-8 μg/ml for itraconazole and griseofulvin.
(§5) The minimum lethal concentration (MLC) was determined by plating […] from the MIC concentration and each concentration above the MIC. […] When a MIC was obtained, a minimum fungicidal concentration (MFC) was determined to assess the fungistatic/fungicidal nature of the compound. […] The compound is scored as fungistatic if the cells are able to resume growth and fungicidal if no regrowth is possible because the compound had killed the organisms.

C. albicans 90028 = test: as above; format: cell-based, Candida albicans; details: Candida albicans; C. albicans 90028; 80% reduction in turbidity; read-out: MIC
Method: as §4, §5

[1] = Homo sapiens, read-out: GL50 (the source's name)
[2] = Homo sapiens, read-out: LC50 (the source's name)
[3] = 4.2 mg/kg (1 mg/kg calculated (−)-PLH) i.p. daily days 1 to 12
[4] = 12.5 mg/kg (3 mg/kg calculated (−)-PLH) i.p. daily days 1 to 12
[5] = 42 mg/kg (10 mg/kg calculated (−)-PLH) i.p. daily days 1 to 12
[6] = 125 mg/kg (30 mg/kg calculated (−)-PLH) i.p. daily days 1 to 12

C=CC(C)(C)c1[nH]cnc1/C=C1\NC(=O)[C@H](Cc2ccccc2)NC1=O (racemic) [PLH, phenylahistin]
TGI (HCT-15): >100000 nM
IC50 (HCT-15; [1]): 490 nM
CC50 (HCT-15; [2]): > 100000 nM
IC50 (MCF-7; Homo sapiens, MCF7, read-out: GL50 (the source's name)): 470 nM
CC50 (MCF-7; Homo sapiens, MCF7, read-out: LC50 (the source's name)): > 100000 nM
TGI (MCF-7): >100000 nM
IC50 (MKN1; Homo sapiens, MKN-1, read-out: GL50 (the source's name)): 400 nM
CC50 (MKN1; Homo sapiens, MKN-1, read-out: LC50 (the source's name)): > 100000 nM
TGI (MKN1): 21000 nM
IC50 (MKN45; Homo sapiens, MKN-45, read-out: GL50 (the source's name)): 1500 nM
CC50 (MKN45; Homo sapiens, MKN-45, read-out: LC50 (the source's name)): > 100000 nM
TGI (MKN45): >100000 nM
IC50 (NCI-H226; [1]): 410 nM
CC50 (NCI-H226; [2]): > 100000 nM
TGI (NCI-H226): 31000 nM
IC50 (OVCAR-8; [1]): 520 nM
CC50 (OVCAR-8; [2]): > 100000 nM
TGI (OVCAR-8): 56000 nM
IC50 (SF-268; [1]): 410 nM
CC50 (SF-268; [2]): > 100000 nM
TGI (SF-268): >100000 nM
IC50 (SF-539; [1]): 230 nM
CC50 (SF-539; [2]): 11000 nM
TGI (SF-539): 600 nM
IC50 (St-4; [1]): 40000 nM
CC50 (St-4; [2]): > 100000 nM
TGI (St-4): >100000 nM
Mean Body weight on day 12 (P388 leukemia cells; [3]): 25.3 ± 0.4 g
Mean Number of Survival days (P388 leukemia cells; [3]): 14.6 ± 0.6 days
T/C (%) (P388 leukemia cells; [3]): 117%
Mean Body weight on day 12 (P388 leukemia cells; [4]): 24.1 ± 0.6 g
Mean Number of Survival days (P388 leukemia cells; [4]): 14.6 ± 0.5 days
T/C (%) (P388 leukemia cells; [4]): 117%
Mean Body weight on day 12 (P388 leukemia cells; [5]): 23.0 ± 0.5 g
Mean Number of Survival days (P388 leukemia cells; [5]): 16.1 ± 0.8 days
T/C (%) (P388 leukemia cells; [5]): 129%
Mean Body weight on day 12 (P388 leukemia cells; [6]): 22.3 ± 0.3 g
Mean Number of Survival days (P388 leukemia cells; [6]): 18.9 ± 0.9 days
T/C (%) (P388 leukemia cells; [6]): 151%
increases in body weight seen in the control group (P388 leukemia cells; daily administrations of PLH 41.5 and 124 mg/kg): suppressed
T/C (P388 leukemia cells; daily dosage of 41.5 mg/kg for 12 days): 129%
T/C (P388 leukemia cells; daily dosage of 124 (30) mg/kg for 12 days): 151%
tremorgenic side effects (P388 leukemia cells; highest dose (124 mg/kg/day)): did not induce such side effects
T/C (P388 leukemia cells; single administration, 415 mg/kg PLH [(−)-PLH 100 mg/kg]): 115%

C=CC(C)(C)c1[nH]cnc1/C=C1\NC(=O)[C@H](Cc2ccccc2)NC1=O [(−)-phenylahistin]
IC50 (A-431 (damal)): 220 nM
IC50 (K562 (leukemia)): 190 nM
IC50 (MCF7 (breast)): 330 nM
IC50 (WiDr (colon)): 180 nM
MIC (C. albicans 10231): > 70 µg/mL
MIC (C. albicans 90028): > 70 µg/mL
